Assay results taken from PMC10247784, “Physiological activation of human and mouse bitter taste receptors by bile acids” (Communications Biology, 2023).
Where “and” joins values, the source holds several entries; their conditions need not be identical. Equal entries are not always repeated.

Tests used:
Type in all cases: cell-based
human TAS2R46 = target: T1, human TAS2R46 (Homo sapiens, UniProt P59540); test: Calcium imaging assay (FLIPR), HEK293T-Gα16gust44 cells transfected with human TAS2R46; conditions: TAS2R46, positive control at 10 µM
T1 construct: expressed in transfected cells; host or cells: HEK293T-Gα16gust44
T1 sequence (P59540 1-309): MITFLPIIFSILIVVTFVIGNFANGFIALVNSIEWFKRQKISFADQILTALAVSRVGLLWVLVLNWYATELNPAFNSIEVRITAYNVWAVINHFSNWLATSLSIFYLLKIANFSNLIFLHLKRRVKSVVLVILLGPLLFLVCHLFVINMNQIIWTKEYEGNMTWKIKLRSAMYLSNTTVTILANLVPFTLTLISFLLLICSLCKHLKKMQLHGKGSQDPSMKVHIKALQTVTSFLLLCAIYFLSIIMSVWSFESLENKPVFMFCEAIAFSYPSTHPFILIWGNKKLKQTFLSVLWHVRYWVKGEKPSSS
Procedure: (§1) This set of bile acids was chosen because of their commercial availability in high purities, their diversity within the class of bile acids and their previous detection and quantitation in human blood. Stock solutions were prepared in DMSO.
(§2) As basal growth medium for the HEK293T-Gα16gust44 cell line[17],[59] served Dulbecco’s modified eagle medium (DMEM) (Thermo Fisher Scientific, Darmstadt, Germany) supplemented with 10 % fetal bovine serum (Sigma-Aldrich, Steinheim, Germany), 2 mM L-glutamine (Sigma-Aldrich, Steinheim, Germany), 100 units/ml penicillin (Sigma Aldrich, Steinheim, Germany) and 100 µg/ml streptomycin (Sigma Aldrich, Steinheim, Germany). Growth conditions were 37 °C, 5 % CO2 and saturated air-humidity[60].
(§3) HEK293T-Gα16gust44 cells were seeded on poly-D-lysine (10 µg/ml) coated 96-well plates to reach a confluence of 40-60 % the next day. For transient transfection 150 ng of plasmid DNA containing the receptor of interest and 0.3 µl lipofectamine 2000 (Thermo Fisher Scientific, Darmstadt, Germany) per well were used and transfection took place according to the manual of lipofectamine 2000. […] The empty vector DNA (mock) was transfected as negative control[14],[41].
(§4) Cells were loaded using the calcium-sensitive fluorescent dye Fluo-4-AM (Abcam, Cambridge, Great Britain) in the presence of 2.5 mM probenecid (Sigma-Aldrich, Steinheim, Germany) the day after transfection[13],[41]. 1 h after loading, cells were washed with C1 buffer using a BioTek Cell Washer, incubated in the dark for half an hour and washed again. For automated agonist application and measurement of fluorescence changes, a FLIPR^TETRA device (Molecular Devices, San José, United States) was used. Viability of cells was tested by application of 100 nM Somatostatin 14 (Bachem, Bubendorf, Switzerland)[42].
(§5) Measured data were negative control corrected by subtracting the signal of the mock-transfected cells and exported to Microsoft Excel using the FLIPR software ScreenWorks 4.2. In Microsoft Excel software, standardization of maximum fluorescence intensities to the basal fluorescence and normalization to the buffer-only control was done to calculate the relative fluorescence changes (ΔF/F).
(§6) Initial screening experiments performed in duplicate wells were confirmed by at least one replication and representative traces were selected for display. All dose-response relationships were determined by three independent experiments (biological replicates) performed in duplicates (technical replicates). Threshold concentrations, defined as lowest substance concentrations leading to statistically significant elevated fluorescence changes in receptor-transfected cells compared with empty vector-transfected cells, were determined using SigmaPlot with Student’s t-test to evaluate statistical significance (p < 0.01).

human TAS2R14 = target: T2, human TAS2R14 (Homo sapiens, UniProt Q9NYV8); test: Calcium imaging assay (FLIPR), HEK293T-Gα16gust44 cells transfected with human TAS2R14
T2 construct: expressed in transfected cells; host or cells: HEK293T-Gα16gust44
T2 sequence (Q9NYV8 1-317): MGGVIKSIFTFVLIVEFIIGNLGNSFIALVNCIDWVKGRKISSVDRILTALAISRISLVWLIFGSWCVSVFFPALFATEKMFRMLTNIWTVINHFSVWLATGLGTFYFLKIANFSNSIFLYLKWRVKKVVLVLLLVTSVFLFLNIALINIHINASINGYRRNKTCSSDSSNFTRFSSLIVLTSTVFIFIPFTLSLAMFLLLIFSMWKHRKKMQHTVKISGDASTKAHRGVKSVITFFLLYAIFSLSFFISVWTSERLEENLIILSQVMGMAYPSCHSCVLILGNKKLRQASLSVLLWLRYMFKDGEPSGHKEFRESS
Procedure: as §1, §2, §3, §4, §5, §6

human TAS2R1 = target: T3, human TAS2R1 (Homo sapiens, UniProt Q9NYW7); test: Calcium imaging assay (FLIPR), HEK293T-Gα16gust44 cells transfected with human TAS2R1; conditions: TAS2R1, positive control at 1 mM
T3 construct: expressed in transfected cells; host or cells: HEK293T-Gα16gust44
T3 sequence (Q9NYW7 1-299): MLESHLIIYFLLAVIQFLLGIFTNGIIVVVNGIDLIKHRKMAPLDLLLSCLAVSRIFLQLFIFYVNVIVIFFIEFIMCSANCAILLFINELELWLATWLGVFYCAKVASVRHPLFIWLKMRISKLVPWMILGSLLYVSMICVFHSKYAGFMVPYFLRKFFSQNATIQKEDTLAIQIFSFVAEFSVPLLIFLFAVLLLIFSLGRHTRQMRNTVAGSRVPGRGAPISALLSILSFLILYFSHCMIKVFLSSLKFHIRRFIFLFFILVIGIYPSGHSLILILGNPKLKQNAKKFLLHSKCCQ
Procedure: as §1, §2, §3, §4, §5, §6

human TAS2R4 = target: T4, human TAS2R4 (Homo sapiens, UniProt Q9NYW5); test: Calcium imaging assay (FLIPR), HEK293T-Gα16gust44 cells transfected with human TAS2R4; conditions: TAS2R4, positive control at 3 mM
T4 construct: expressed in transfected cells; host or cells: HEK293T-Gα16gust44
T4 sequence (Q9NYW5 1-299): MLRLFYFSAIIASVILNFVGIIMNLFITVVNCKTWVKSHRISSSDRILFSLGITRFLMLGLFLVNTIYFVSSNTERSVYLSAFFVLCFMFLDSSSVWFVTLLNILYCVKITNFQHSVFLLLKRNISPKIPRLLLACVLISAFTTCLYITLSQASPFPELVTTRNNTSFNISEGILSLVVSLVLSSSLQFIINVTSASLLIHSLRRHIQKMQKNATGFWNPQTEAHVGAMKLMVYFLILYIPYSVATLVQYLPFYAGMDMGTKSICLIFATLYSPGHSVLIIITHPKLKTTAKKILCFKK
Procedure: as §1, §2, §3, §4, §5, §6

human TAS2R39 = target: T5, human TAS2R39 (Homo sapiens, UniProt P59534); test: Calcium imaging assay (FLIPR), HEK293T-Gα16gust44 cells transfected with human TAS2R39; conditions: TAS2R39, positive control at 3 mM
T5 construct: expressed in transfected cells; host or cells: HEK293T-Gα16gust44
T5 sequence (P59534 1-338): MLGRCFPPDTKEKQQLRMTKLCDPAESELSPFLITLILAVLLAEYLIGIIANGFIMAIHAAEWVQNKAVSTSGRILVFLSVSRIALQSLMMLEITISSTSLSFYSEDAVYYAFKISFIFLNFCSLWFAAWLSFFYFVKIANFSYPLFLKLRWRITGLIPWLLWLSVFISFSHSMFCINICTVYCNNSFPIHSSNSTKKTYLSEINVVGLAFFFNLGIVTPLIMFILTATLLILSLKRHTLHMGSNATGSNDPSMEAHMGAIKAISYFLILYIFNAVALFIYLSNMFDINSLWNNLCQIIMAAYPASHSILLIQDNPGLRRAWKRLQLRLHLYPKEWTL
Procedure: as §1, §2, §3, §4, §5, §6

O=C1C[C@@H]2OCC=C3CN4CC[C@]56c7ccccc7N1[C@H]5[C@H]2[C@H]3C[C@H]46 [strychnine, reference compound]
Efficacy = maximal amplitude (ΔF/F) (human TAS2R46; mean): 0.2373

COc1cccc2c1cc([N+](=O)[O-])c1c(C(=O)O)cc3c(c12)OCO3 [aristolochic acid, reference compound]
Efficacy = maximal amplitude (ΔF/F) (human TAS2R14; TAS2R14, positive control at 10 µM, mean): 0.4945 | Efficacy (maximal amplitude ΔF/F), individual data points (human TAS2R14; TAS2R14, positive control at 10 µM, single replicates): 0.6939 and 0.4242 and 0.3654 | Efficacy (signal amplitude) versus control stimulus, TAS2R14 (human TAS2R14; highest applied concentrations, control 10 µM aristolochic acid): about twice as high as the most effective bile acids

C=C(C)[C@@H]1[C@H]2OC(=O)[C@@H]1[C@]1(O)C[C@H]3O[C@]34C(=O)O[C@H]2[C@]14C [picrotoxinin, reference compound]
Efficacy = maximal amplitude (ΔF/F) (human TAS2R1; mean): 0.1084 | Efficacy (maximal amplitude ΔF/F), individual data points (human TAS2R1; single replicates): 0.08063 and 0.1121 and 0.1325

O=C1C[C@@H]2OCC=C3CN4CC[C@]56c7ccccc7N1[C@H]5[C@H]2[C@H]3C[C@H]46 [Strychnin]
Efficacy (maximal amplitude ΔF/F), individual data points (human TAS2R46; single replicates): 0.1901 and 0.2368 and 0.2851

COc1cc2c(c(OC)c1OC)-c1ccc(OC)c(=O)cc1[C@@H](NC(C)=O)CC2 [Colchicin]
Efficacy = maximal amplitude (ΔF/F) (human TAS2R4; mean): 0.02059 | Efficacy (maximal amplitude ΔF/F), individual data points (human TAS2R4; single replicates): 0.02499 and 0.02039 and 0.01223

CC[N+](CC)(CC(=O)Nc1c(C)cccc1C)Cc1ccccc1 [denatonium benzoate, reference compound]
Efficacy = maximal amplitude (ΔF/F) (human TAS2R39; mean): 0.08257 | Efficacy (maximal amplitude ΔF/F), individual data points (human TAS2R39; single replicates): 0.09973 and 0.06456 and 0.07602
